The text below walks through data of patent KR20200032170A, “편두통 및 군발성 두통의 치료를 위한 졸미트립탄의 치료적 농도를 신속하게 달성하는 방법” (조사노 파마 코포레이션, priority 2017, dated 2019).

Where two headings read alike, the source gives them in different places. A value given as a limit tells only on which side of the number the result lay.

The conditions of series [1]: cited from earlier work.
The next series concerns migraine (편두통). Particulars: cited from earlier work; for pain freedom at 2 h / pain relief at 2 h: lowest oral dose; for pain freedom: nasal zolmitriptan.
The next series in a line: Zolmitriptan pKa. The class given is physicochemical.

For `CNCCc1c[nH]c2ccc(C[C@H]3COC(=O)N3)cc12` [N-데스메틸 졸미트립탄], in series [1] (in vivo), the “metabolite concentration relative to zolmitriptan concentration” value is listed as 2/3.
In the case of `CNS(=O)(=O)CCc1ccc2[nH]cc(C3CCN(C)CC3)c2c1` [나라트립탄], in the series with migraine (편두통), the “pain freedom at 2 h” value is given as 18% and the “pain relief at 2 h” value is reported as 49%.
With `CNS(=O)(=O)Cc1ccc2[nH]cc(CCN(C)C)c2c1` [수마트립탄], in the series on migraine (편두통) (injected), the onset of action is listed as at most 10 min. For the same molecule, in series [1] (oral tablet), the Tmax is recorded as about 2 h. The oral bioavailability in series [1] (oral, as succinate) is about 15%.
`CN(C)CCc1c[nH]c2ccc(C[C@H]3COC(=O)N3)cc12` [졸미트립탄]: in the series on migraine (편두통), the “pain freedom at 2 h” value is on record as 29%. The “pain relief at 2 h” value with migraine (편두통) is given as 62%. For the same molecule, the pain freedom in the series on migraine (편두통) (1 h) is about 10%; with migraine (편두통) (2 h), under 25%; in the series with migraine (편두통) (4 h) it was under 40%. Moreover, in the series with migraine (편두통) (placebo-controlled clinical trials), the “efficacy and tolerability (in words)” value is given as “효과적이고 우수한 내약성을 갖는 것으로 보여졌다”. The “pKa (weak base)” value in “Zolmitriptan pKa” is listed as 9.6. The Tmax in series [1] (nasal administration) is about 1.5 h.
